Consider 1 compound from patent US11932651B1, “2-benzo-[3,4-B]quinolino-[b,g]indeno[1′,2′:3,4]fluoreno-[1,2-d]oxonine-24-chloro-5,11,16,21-tetraone as an antimicrobial compound” (KING FAISAL UNIVERSITY, priority 2023, dated 2024).

One data set concerns Staphylococcus aureus. In words: Antimicrobial screening by agar dilution, Staphylococcus aureus. Particulars: after 10, 20, 40 and 60 minutes at all dilutions 1:100, 1:200, 1:400, 1:800. The class given is cell-based. The method, then:
(§1) The antibacterial properties of the synthesized compound 2-benzo-[3,4-b]quinolino-[b,g]indeno[1′,2′:3,4]fluoreno-[1,2-d]oxonine-24-chloro-5,11,16,21-tetraone were studied by the method of agar dilution. Test solutions of each compound was prepared in concentration of 1% using dimethylformamide as a solvent then they are diluted in physiological solution to obtain the final experimental dilutions 1:100, 1:200, 1:400, 1:800. The effect of these substances are compared with furacillin in a controllable study. The testing microbes used were gram positive bacteria Staphylococcus aureus, gram negative bacteria Pseudomonas aeruginosa and Escherichia coli and Candida albicans fungus. The experiments used for this survey were meat-pentonlu agar (EPA) for cultivation of bacteria and Saburo environment for the fungus. Each experiment used 1 mL of test solution on each plate […]. Two drops of emulsified with microbes feel were added. All experimental samples were taken from the agar after 10, 20, 40, 60 minutes in the environment on the basis of Patrk planted. The bacteria were cultivated at a temperature of 37° C. for 1 day and the mushroom was kept in a thermostat for […] at a temperature of 28° C. Then results were checked.
In general terms: In agar dilution the substance is mixed into plates at graded concentrations.

Another data set concerns Escherichia coli. The experiment in a line: Antimicrobial screening by agar dilution, Escherichia coli. Format: cell-based. Particulars: after 10, 20, 40 and 60 minutes at all dilutions 1:100, 1:200, 1:400, 1:800. The method, then: as §1
Another data set has as its system Pseudomonas aeruginosa. In words: Antimicrobial screening by agar dilution, Pseudomonas aeruginosa. Format: cell-based. Particulars: after 10, 20, 40 and 60 minutes at all dilutions 1:100, 1:200, 1:400, 1:800. The method, then: as §1
In a further data set the test system is Candida albicans. In words: Antimicrobial screening by agar dilution, Candida albicans. The class given is cell-based. Particulars: after 10, 20, 40 and 60 minutes at all dilutions 1:100, 1:200, 1:400, 1:800. The method, then:
as §1

A word on the melting point: it is the temperature of the solid-liquid transition.

As for `O=C1Oc2nc3ccc(Cl)cc3cc2-c2c(c3c4ccccc4c(=O)c3c3c2c(=O)c2ccccc23)C(=O)c2ccccc21` [2-benzo-[3,4-b]quinolino-[b,g]indeno[1′,2′:3,4]fluoreno-[1,2-d]oxonine-24-chloro-5,11,16,21-tetraone], the melting point stood at 241 °C. Moreover, in the data set with Staphylococcus aureus, the “inhibition activity, Staphylococcus aureus” value is “highest inhibition activity”. In the data set with Escherichia coli, the “inhibition activity, Escherichia coli” value is “highest inhibition activity”. For the same compound, the “inhibition activity, Pseudomonas aeruginosa” value in the data set with Pseudomonas aeruginosa was “highest inhibition activity”. For the same compound, the “inhibition activity, Candida albicans” value in the data set on Candida albicans is reported as “highest inhibition activity”.
